These results are taken from patent US20110053971A1, “NALMEFENE DI-ESTER PRODRUGS” (JANSSEN PHARMACEUTICA NV, priority 2008, published 2011).

The data set is described as follows: In vivo PK studies in dog (oral administration): plasma levels of nalmefene. Conditions: oral administration of nalmefene itself, Example C.2. How it is done:
Doses at 10 mg/kg or 20 mg/kg body weight of a compound of formula (I) or of nalmefene itself in a solution of 20% HP-β-CD (hydroxypropyl-β-cyclodextrines) were used and orally administered to dogs.
Blood samples were taken over a period of 192 hours after oral administration. Blood samples were processed to obtain plasma. Plasma samples were analysed individually for nalmefene by means of a qualified LC-MS/MS-method.

As to `C=C1CC[C@@]2(O)[C@H]3Cc4ccc(O)c5c4[C@@]2(CCN3CC2CC2)[C@H]1O5` [nalmefene, 17-cyclopropylmethyl-4,5α-epoxy-6-methylenemorphinan-3,14-diol], the “time for which plasma levels of nalmefene can be measured after oral administration (in words)” value is “a few hours”.
